For this assay, the target named is T1, arginase.
T1 construct: purified recombinant arginase
Put plainly: enzyme inhibition kinetics with purified recombinant arginase; Dixon and Cornish-Bowden plots (IC50 […]). It counts as biochemical, Leishmania amazonensis.

The values that follow come from PMC12030301, “Caffeic Acid Phenethyl Ester (CAPE) Inhibits Arginase Activity and Growth of Leishmania amazonensis Promastigotes and Intracellular Amastigotes” (Pathogens, 2025).

As to `O=C(/C=C/c1ccc(O)c(O)c1)OCCc1ccccc1` [CAPE, Caffeic acid phenethyl ester], the Ki worked out at 1510 ± 40 nM.
